# Experimental data as given in paper PMC9035150, “Effects of ALT-801, a GLP-1 and glucagon receptor dual agonist, in a translational mouse model of non-alcoholic steatohepatitis” (Scientific Reports, 2022).
# Test system: DIO-NASH mouse model
# Assay: Biopsy-confirmed DIO-NASH (AMLN diet) mouse model, 12 weeks of daily treatment
# Assay type: in vivo
# Procedure: ALT-801 was evaluated for its metabolic and anti-fibrotic effects during 12 weeks of treatment in the well-documented Amylin Liver NASH (AMLN) DIO-NASH mouse model[22],[44] at Gubra ApS. Mice had ad libitum access to tap water and a diet high in fat (40%, containing 18% trans-fat; 40% carbohydrates, 20% fructose) and 2% cholesterol (AMLN diet; D09100301, Research Diets, New Brunswick, NJ). Semaglutide (GLP-1R agonist) and elafibranor (peroxisome proliferator-activated receptor [PPAR]-α/δ agonist) were included as comparators to assess the effects of added GCGR agonism, and a previously observed modest antifibrotic effect in this assay, respectively. […]
# After 29 weeks of diet induction (week-3 relative to start of treatment) a pre-treatment liver biopsy was performed as described in detail previously[44] to select animals for stratification and randomization based on histological assessment. Liver histology was scored using the NAS and fibrosis stage criteria defined by the NASH Clinical Research Network Pathology Committee[47] and only those animals with confirmed steatosis (score ≥ 2) and fibrosis (stage ≥ 1) were selected for stratification and randomization. A stratified randomization into treatment groups was performed for the biopsy-proven DIO-NASH mice according to liver collagen type 1 alpha 1 (Col1A1) quantification at week-3. […]
smiles,measurement,setting,value
CSc1ccc(C(=O)/C=C/c2cc(C)c(OC(C)(C)C(=O)O)c(C)c2)cc1 [elafibranor],Animals with reduction in fibrosis stage of 1 or greater compared to the start of treatment,12 weeks,75%
same,Body weight vs. vehicle,"daily for 12 weeks, ALT-801 5 and 10 nmol/kg s.c., semaglutide 10 nmol/kg s.c., elafibranor 78 μmol/kg oral, stabilized after 2–3 weeks, n = 11–12",significant (p < 0.001) body weight decreases
